This is an account of results in ChEMBL document CHEMBL1909046, “DrugMatrix in vitro pharmacology data”.

Melanocortin receptor 4, sequence (P32245 whole entry): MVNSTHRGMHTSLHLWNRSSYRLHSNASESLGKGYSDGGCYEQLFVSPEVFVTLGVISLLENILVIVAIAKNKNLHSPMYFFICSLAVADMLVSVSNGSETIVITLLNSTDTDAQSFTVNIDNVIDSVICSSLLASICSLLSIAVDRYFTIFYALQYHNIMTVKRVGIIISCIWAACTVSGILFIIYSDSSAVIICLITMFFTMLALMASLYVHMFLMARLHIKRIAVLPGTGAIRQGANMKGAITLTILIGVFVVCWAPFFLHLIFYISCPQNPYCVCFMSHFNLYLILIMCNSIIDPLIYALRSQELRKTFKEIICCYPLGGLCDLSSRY
Kappa-type opioid receptor, sequence (P41145 whole entry): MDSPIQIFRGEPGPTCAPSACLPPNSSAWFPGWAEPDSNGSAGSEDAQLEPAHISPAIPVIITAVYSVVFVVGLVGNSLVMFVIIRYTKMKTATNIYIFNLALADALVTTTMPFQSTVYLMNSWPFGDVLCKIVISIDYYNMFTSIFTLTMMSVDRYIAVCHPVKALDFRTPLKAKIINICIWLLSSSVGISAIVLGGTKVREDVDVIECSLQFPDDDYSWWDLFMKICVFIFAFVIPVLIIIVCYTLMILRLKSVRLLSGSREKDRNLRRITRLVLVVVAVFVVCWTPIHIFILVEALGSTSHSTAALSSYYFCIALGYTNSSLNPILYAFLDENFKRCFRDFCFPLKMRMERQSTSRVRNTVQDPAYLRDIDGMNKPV
Sigma non-opioid intracellular receptor 1, sequence (Q99720 whole entry): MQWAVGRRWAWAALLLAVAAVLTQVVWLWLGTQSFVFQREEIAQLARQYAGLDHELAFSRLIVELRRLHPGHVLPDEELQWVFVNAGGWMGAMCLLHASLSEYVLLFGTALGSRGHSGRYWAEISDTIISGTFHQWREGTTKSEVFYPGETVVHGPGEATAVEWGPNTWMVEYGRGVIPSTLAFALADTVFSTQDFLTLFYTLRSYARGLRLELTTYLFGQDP

For one experiment, the target named is T1, Alpha-1B adrenergic receptor (Rattus norvegicus, UniProt P15823).
T1 sequence (P15823 whole entry): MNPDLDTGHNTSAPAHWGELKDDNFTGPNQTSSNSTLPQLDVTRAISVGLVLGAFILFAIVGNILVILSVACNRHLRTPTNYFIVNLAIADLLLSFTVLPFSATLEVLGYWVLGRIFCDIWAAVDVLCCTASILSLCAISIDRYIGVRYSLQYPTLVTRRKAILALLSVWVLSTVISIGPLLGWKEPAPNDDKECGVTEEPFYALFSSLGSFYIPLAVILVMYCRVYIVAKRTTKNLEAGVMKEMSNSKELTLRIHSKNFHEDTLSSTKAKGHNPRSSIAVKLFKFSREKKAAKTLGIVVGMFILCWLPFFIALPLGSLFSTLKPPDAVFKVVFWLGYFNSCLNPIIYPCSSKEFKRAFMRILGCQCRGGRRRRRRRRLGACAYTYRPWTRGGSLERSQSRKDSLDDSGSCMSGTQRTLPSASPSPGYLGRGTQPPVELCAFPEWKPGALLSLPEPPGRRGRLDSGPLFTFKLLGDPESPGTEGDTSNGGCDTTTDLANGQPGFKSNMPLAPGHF
Kind of experiment: DRUGMATRIX: Alpha-1B adrenergic receptor radioligand binding (ligand: prazosin). The settings on record: Not Active = under 50% inhibition at 10 µM. It is filed as cell membranes, Wistar, Liver, Membrane.
Regarding `COC(=O)c1ccc(O)cc1` [METHYLPARABEN], the IC50 entry is given as “Not Active”.

Take `c1ccc2[nH]c(-c3cscn3)nc2c1` [THIABENDAZOLE]: the IC50 entry is on record as “Not Active”.

In the next experiment the target is Beta-1 adrenergic receptor (Homo sapiens, UniProt P08588). The experiment in a line: DRUGMATRIX: Adrenergic beta1 radioligand binding (ligand: [125I] Cyanopindolol). It counts as cell membranes, CHO-K1, Membrane. The settings on record: cho-k1; Not Active = under 50% inhibition at 10 µM.
Beta-1 adrenergic receptor, sequence (P08588 whole entry): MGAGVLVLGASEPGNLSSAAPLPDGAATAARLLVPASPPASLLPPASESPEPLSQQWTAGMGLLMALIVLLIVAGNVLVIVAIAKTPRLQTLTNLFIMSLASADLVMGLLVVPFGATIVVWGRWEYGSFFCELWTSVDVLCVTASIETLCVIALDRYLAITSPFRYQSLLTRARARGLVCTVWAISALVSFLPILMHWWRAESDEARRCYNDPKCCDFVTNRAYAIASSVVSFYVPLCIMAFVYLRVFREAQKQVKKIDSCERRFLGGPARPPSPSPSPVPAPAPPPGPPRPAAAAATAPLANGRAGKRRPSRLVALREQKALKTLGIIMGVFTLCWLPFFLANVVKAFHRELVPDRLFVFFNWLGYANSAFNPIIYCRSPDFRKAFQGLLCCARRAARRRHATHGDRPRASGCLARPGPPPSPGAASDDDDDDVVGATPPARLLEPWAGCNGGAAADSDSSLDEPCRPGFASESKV
Regarding `COC(=O)c1ccc(O)cc1` [METHYLPARABEN], the IC50 result was “Not Active”.

`c1ccc2[nH]c(-c3cscn3)nc2c1` [THIABENDAZOLE]: the IC50 entry was “Not Active”.

Test system in another experiment: not listed separately
The experiment in a line: DRUGMATRIX: ATPase, Na+/K+ enzyme inhibition (substrate: ATP). It is filed as tissue-based, Sus scrofa, Heart. The following applies: Not Active = under 50% inhibition at 10 µM.
In the case of `COC(=O)c1ccc(O)cc1` [METHYLPARABEN], the IC50 result is “Not Active” and the Ki entry was “Not Active”.

For the compound `c1ccc2[nH]c(-c3cscn3)nc2c1` [THIABENDAZOLE], the IC50 entry is “Not Active” and the Ki entry is “Not Active”.

Test system in another experiment: not listed separately
The experiment in a line: DRUGMATRIX: Calcium Channel Type L, Benzothiazepine radioligand binding (ligand: [3H] Diltiazem). It counts as cell membranes, Rattus norvegicus, Wistar, Brain, Membrane. The settings on record: Not Active = under 50% inhibition at 10 µM.
Take `COC(=O)c1ccc(O)cc1` [METHYLPARABEN]: the IC50 result was “Not Active” and the Ki result was “Not Active”.

With `c1ccc2[nH]c(-c3cscn3)nc2c1` [THIABENDAZOLE], the IC50 result is on record as “Not Active” and the Ki entry is recorded as “Not Active”.

For the next experiment, the target named is T2, 5-hydroxytryptamine receptor 2C (Homo sapiens, UniProt P28335).
T2 sequence (P28335 whole entry): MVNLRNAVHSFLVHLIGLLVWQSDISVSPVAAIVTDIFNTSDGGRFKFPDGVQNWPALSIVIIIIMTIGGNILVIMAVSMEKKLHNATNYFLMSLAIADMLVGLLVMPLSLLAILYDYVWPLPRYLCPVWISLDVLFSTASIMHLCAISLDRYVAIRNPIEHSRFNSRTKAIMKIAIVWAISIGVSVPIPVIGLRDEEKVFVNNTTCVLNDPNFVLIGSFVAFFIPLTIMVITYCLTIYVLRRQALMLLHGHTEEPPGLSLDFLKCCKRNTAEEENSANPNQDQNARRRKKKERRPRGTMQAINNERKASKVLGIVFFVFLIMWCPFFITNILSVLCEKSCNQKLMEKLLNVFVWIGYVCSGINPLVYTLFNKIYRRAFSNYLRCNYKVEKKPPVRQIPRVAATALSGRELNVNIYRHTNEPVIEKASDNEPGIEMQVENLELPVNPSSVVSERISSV
Kind of experiment: DRUGMATRIX: Serotonin (5-Hydroxytryptamine) 5-HT2C radioligand binding (ligand: [3H] Mesulergine). It is filed as cell membranes, CHO-K1, Membrane. The settings on record: cho-k1; Not Active = under 50% inhibition at 10 µM.
Regarding `COC(=O)c1ccc(O)cc1` [METHYLPARABEN], the IC50 result is reported as “Not Active”.

Turning to `c1ccc2[nH]c(-c3cscn3)nc2c1` [THIABENDAZOLE], the IC50 result is on record as “Not Active”.

Test system in another experiment: not listed separately
The experiment in a line: DRUGMATRIX: Serotonin (5-Hydroxytryptamine) 5-HT3 radioligand binding (ligand: [3H] GR-65630). It is filed as cell membranes, Membrane. The settings on record: hek293; Not Active = under 50% inhibition at 10 µM.
As for `COC(=O)c1ccc(O)cc1` [METHYLPARABEN], the IC50 result is “Not Active” and the Ki result was “Not Active”.

With `c1ccc2[nH]c(-c3cscn3)nc2c1` [THIABENDAZOLE], the IC50 entry is recorded as “Not Active” and the Ki result was “Not Active”.

The target of a further experiment is 5-hydroxytryptamine receptor 6 (Homo sapiens, UniProt P50406). It counts as cell membranes, HeLa, Membrane. The following applies: hela. Also: in other assays of this panel Not Active means under 50% inhibition at 10 µM.
5-hydroxytryptamine receptor 6, sequence (P50406 whole entry): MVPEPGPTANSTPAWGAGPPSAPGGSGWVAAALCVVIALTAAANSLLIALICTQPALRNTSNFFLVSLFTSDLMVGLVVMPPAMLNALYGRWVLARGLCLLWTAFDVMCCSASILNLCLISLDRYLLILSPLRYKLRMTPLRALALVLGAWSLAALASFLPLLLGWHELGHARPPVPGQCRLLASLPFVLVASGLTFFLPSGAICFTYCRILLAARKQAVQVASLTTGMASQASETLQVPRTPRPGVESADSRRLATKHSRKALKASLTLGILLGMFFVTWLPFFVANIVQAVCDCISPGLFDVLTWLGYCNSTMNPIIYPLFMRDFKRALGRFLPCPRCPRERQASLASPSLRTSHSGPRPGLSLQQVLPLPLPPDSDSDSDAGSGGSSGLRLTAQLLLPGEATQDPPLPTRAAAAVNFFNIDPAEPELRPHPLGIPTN
Consider `COC(=O)c1ccc(O)cc1` [METHYLPARABEN], for which the IC50 result is “Not Active”.

In the case of `c1ccc2[nH]c(-c3cscn3)nc2c1` [THIABENDAZOLE], the IC50 entry is on record as “Not Active”.

The next experiment has as its target Sigma non-opioid intracellular receptor 1 (Homo sapiens, UniProt Q99720). Kind of experiment: DRUGMATRIX: Sigma1 radioligand binding (ligand: [3H] Haloperidol). It counts as cell membranes, Jurkat, Membrane. The following applies: jurkat; Not Active = under 50% inhibition at 10 µM.
With `COC(=O)c1ccc(O)cc1` [METHYLPARABEN], the IC50 result is on record as “Not Active”.

For the compound `c1ccc2[nH]c(-c3cscn3)nc2c1` [THIABENDAZOLE], the IC50 result was “Not Active”.

Test system in a further experiment: not listed separately
Kind of experiment: DRUGMATRIX: Calcium Channel Type L, Phenylalkylamine radioligand binding (ligand: [3H] (-)-Desmethoxyverapamil (D-888)). It is filed as cell membranes, Rattus norvegicus, Wistar, Brain, Membrane. The following applies: Not Active = under 50% inhibition at 10 µM.
For `COC(=O)c1ccc(O)cc1` [METHYLPARABEN], the IC50 result is reported as “Not Active” and the Ki result was “Not Active”.

Regarding `c1ccc2[nH]c(-c3cscn3)nc2c1` [THIABENDAZOLE], the IC50 entry was “Not Active” and the Ki entry is “Not Active”.

In a further experiment the target is T3, Endothelin-1 receptor (Homo sapiens, UniProt P25101). Also: in other assays of this panel Not Active means under 50% inhibition at 10 µM.
T3 sequence (P25101 whole entry): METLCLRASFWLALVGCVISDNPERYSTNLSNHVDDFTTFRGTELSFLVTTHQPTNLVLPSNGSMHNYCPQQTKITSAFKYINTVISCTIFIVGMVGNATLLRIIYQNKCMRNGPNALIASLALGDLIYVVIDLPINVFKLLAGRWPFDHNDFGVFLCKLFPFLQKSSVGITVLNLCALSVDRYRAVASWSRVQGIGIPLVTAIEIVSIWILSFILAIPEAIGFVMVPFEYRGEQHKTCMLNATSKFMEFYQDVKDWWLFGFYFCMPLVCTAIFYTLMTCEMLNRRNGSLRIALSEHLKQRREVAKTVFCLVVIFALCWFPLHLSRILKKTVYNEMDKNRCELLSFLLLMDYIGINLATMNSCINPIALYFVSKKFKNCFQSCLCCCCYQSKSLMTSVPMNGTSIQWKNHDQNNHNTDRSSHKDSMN
It counts as cell membranes, Membrane. The following applies: cho-k1.
Take `COC(=O)c1ccc(O)cc1` [METHYLPARABEN]: the IC50 result was “Not Active”.

Turning to `c1ccc2[nH]c(-c3cscn3)nc2c1` [THIABENDAZOLE], the IC50 entry is reported as “Not Active”.

Test system in a further experiment: not listed separately
The experiment in a line: DRUGMATRIX: GABAA, Muscimol, Central radioligand binding (ligand: [3H] Muscimol). It is filed as cell membranes, Rattus norvegicus, Wistar, Brain, Membrane. The settings on record: Not Active = under 50% inhibition at 10 µM.
As to `COC(=O)c1ccc(O)cc1` [METHYLPARABEN], the IC50 result is given as “Not Active” and the Ki entry was “Not Active”.

As for `c1ccc2[nH]c(-c3cscn3)nc2c1` [THIABENDAZOLE], the IC50 result is “Not Active” and the Ki result was “Not Active”.

Test system in another experiment: not listed separately
The experiment in a line: DRUGMATRIX: Glutamate, Kainate radioligand binding (ligand: [3H] Kainic acid). It is filed as cell membranes, Rattus norvegicus, Wistar, Brain, Membrane. The settings on record: Not Active = under 50% inhibition at 10 µM.
For `COC(=O)c1ccc(O)cc1` [METHYLPARABEN], the IC50 result is “Not Active” and the Ki result is recorded as “Not Active”.

Turning to `c1ccc2[nH]c(-c3cscn3)nc2c1` [THIABENDAZOLE], the IC50 entry is “Not Active” and the Ki entry is listed as “Not Active”.

Another experiment has as its target Melanocortin receptor 4 (Homo sapiens, UniProt P32245). It counts as cell membranes, Membrane. The following applies: hek293. Also: in other assays of this panel Not Active means under 50% inhibition at 10 µM.
With `COC(=O)c1ccc(O)cc1` [METHYLPARABEN], the IC50 entry is “Not Active”.

On to `c1ccc2[nH]c(-c3cscn3)nc2c1` [THIABENDAZOLE], for which the IC50 result is listed as “Not Active”.

The target of the next experiment is T4, Neuropeptide Y receptor type 2 (Homo sapiens, UniProt P49146). Also: in other assays of this panel Not Active means under 50% inhibition at 10 µM.
T4 sequence (P49146 whole entry): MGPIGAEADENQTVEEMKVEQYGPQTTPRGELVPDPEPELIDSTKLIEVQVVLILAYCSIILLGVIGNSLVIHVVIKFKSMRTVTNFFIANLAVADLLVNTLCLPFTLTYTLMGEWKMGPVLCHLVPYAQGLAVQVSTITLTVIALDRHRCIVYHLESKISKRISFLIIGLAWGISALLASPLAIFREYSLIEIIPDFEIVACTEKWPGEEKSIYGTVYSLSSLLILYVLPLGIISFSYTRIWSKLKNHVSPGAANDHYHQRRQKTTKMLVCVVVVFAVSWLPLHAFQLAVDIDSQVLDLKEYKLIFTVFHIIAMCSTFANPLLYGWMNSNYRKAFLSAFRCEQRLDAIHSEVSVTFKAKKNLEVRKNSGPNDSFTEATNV
It is filed as cell membranes, Membrane. The following applies: kan-ts.
Consider `COC(=O)c1ccc(O)cc1` [METHYLPARABEN], for which the IC50 result is “Not Active”.

For the compound `c1ccc2[nH]c(-c3cscn3)nc2c1` [THIABENDAZOLE], the IC50 result was “Not Active”.

Test system in a further experiment: not listed separately
Kind of experiment: DRUGMATRIX: Nicotinic Acetylcholine radioligand binding (ligand: [125I] Epibatidine). It counts as cell membranes, Membrane. The following applies: imr-32; Not Active = under 50% inhibition at 10 µM.
On to `COC(=O)c1ccc(O)cc1` [METHYLPARABEN], for which the IC50 result is given as “Not Active” and the Ki result is “Not Active”.

With `c1ccc2[nH]c(-c3cscn3)nc2c1` [THIABENDAZOLE], the IC50 entry is listed as “Not Active” and the Ki result is “Not Active”.

A further experiment concerns the target Kappa-type opioid receptor (Homo sapiens, UniProt P41145). The experiment in a line: DRUGMATRIX: Opiate kappa (OP2, KOP) radioligand binding (ligand: [3H] Diprenorphine). The settings on record: hek293; Not Active = under 50% inhibition at 10 µM. It is filed as cell membranes, HEK293, Membrane.
As for `COC(=O)c1ccc(O)cc1` [METHYLPARABEN], the IC50 result was “Not Active”.

`c1ccc2[nH]c(-c3cscn3)nc2c1` [THIABENDAZOLE]: the IC50 entry is “Not Active”.

The next experiment deals with Mu-type opioid receptor (Homo sapiens, UniProt P35372). Kind of experiment: DRUGMATRIX: Opiate mu (OP3, MOP) radioligand binding (ligand: [3H] Diprenorphine). It counts as cell membranes, CHO-K1, Membrane. The following applies: cho-k1; Not Active = under 50% inhibition at 10 µM.
Mu-type opioid receptor, sequence (P35372 whole entry): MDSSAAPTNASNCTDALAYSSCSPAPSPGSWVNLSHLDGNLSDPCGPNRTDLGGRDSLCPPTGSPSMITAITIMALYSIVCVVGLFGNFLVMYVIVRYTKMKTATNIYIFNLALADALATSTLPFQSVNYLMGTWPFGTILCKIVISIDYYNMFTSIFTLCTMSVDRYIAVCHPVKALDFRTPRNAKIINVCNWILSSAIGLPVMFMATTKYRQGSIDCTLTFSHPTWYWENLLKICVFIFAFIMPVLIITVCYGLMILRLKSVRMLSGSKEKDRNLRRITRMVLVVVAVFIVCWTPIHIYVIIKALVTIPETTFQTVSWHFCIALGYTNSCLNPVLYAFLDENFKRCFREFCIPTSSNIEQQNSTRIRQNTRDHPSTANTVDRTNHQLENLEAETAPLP
On to `COC(=O)c1ccc(O)cc1` [METHYLPARABEN], for which the IC50 result is reported as “Not Active”.

Consider `c1ccc2[nH]c(-c3cscn3)nc2c1` [THIABENDAZOLE], for which the IC50 result was “Not Active”.
